From the supplement of paper PMC10307832

Key:
Experiment in all cases: relative viability (nuclei count vs DMSO), 5 days (fraction); higher = more cells survive
[1] = compound: CC1CC(=O)N(C2=CN=C(N=C2N1C3CCCC3)NC4=C(C=C(C=C4)C(=O)NC5CCN(CC5)C)OC)C [NPK76-II-72-1] + Cc1cc(Nc2cc(N3CCN(C)CC3)nc(Sc3ccc(NC(=O)C4CC4)cc3)n2)n[nH]1 [Tozasertib] (partner 0.1 µM)
How it was run: (§1)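 Five library-drug doses in √10 steps were combined with a fixed anchor-drug dose, or a single drug was given alone, by pin tool to lung cancer cell lines in 1536-well plates the day after seeding. Nuclei were stained and counted after 5 days. Relative viability is the nuclei count in treated wells over that in vehicle wells, taken as the median of duplicate plates.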

BI-2536 + Bortezomib = compound: CC[C@@H]1C(=O)N(C)c2cnc(Nc3ccc(C(=O)NC4CCN(C)CC4)cc3OC)nc2N1C1CCCC1 [BI-2536] + CC(C)C[C@H](NC(=O)[C@H](Cc1ccccc1)NC(=O)c1cnccn1)B(O)O [Bortezomib] (partner 0.002 µM)
How it was run: as §1

BI-2536 + Foretinib = compound: CC[C@@H]1C(=O)N(C)c2cnc(Nc3ccc(C(=O)NC4CCN(C)CC4)cc3OC)nc2N1C1CCCC1 [BI-2536] + COc1cc2c(Oc3ccc(NC(=O)C4(C(=O)Nc5ccc(F)cc5)CC4)cc3F)ccnc2cc1OCCCN1CCOCC1 [Foretinib] (partner 0.25 µM)
How it was run: as §1

BI-2536 + Linsitinib = compound: CC[C@@H]1C(=O)N(C)c2cnc(Nc3ccc(C(=O)NC4CCN(C)CC4)cc3OC)nc2N1C1CCCC1 [BI-2536] + C[C@]1(O)C[C@@H](c2nc(-c3ccc4ccc(-c5ccccc5)nc4c3)c3c(N)nccn32)C1 [Linsitinib] (partner 1 µM)
How it was run: as §1

Row | Cell Line | relative viability ([1]; first compound 0.01 µM) | relative viability ([1]; first compound 0.03162 µM) | relative viability ([1]; first compound 0.1 µM) | relative viability ([1]; first compound 0.3162 µM) | relative viability ([1]; first compound 1 µM) | relative viability (BI-2536 + Bortezomib; first compound 0.01 µM) | relative viability (BI-2536 + Bortezomib; first compound 0.03162 µM) | relative viability (BI-2536 + Bortezomib; first compound 0.1 µM) | relative viability (BI-2536 + Bortezomib; first compound 0.3162 µM) | relative viability (BI-2536 + Bortezomib; first compound 1 µM) | relative viability (BI-2536 + Foretinib; first compound 0.01 µM) | relative viability (BI-2536 + Foretinib; first compound 0.03162 µM) | relative viability (BI-2536 + Foretinib; first compound 0.1 µM) | relative viability (BI-2536 + Foretinib; first compound 0.3162 µM) | relative viability (BI-2536 + Foretinib; first compound 1 µM) | relative viability (BI-2536 + Linsitinib; first compound 0.01 µM) | relative viability (BI-2536 + Linsitinib; first compound 0.03162 µM) | relative viability (BI-2536 + Linsitinib; first compound 0.1 µM) | relative viability (BI-2536 + Linsitinib; first compound 0.3162 µM) | relative viability (BI-2536 + Linsitinib; first compound 1 µM)
1 | RERF-LC-KJ | 0.589 | 0.51 | 0.573 | 0.548 | 0.513 | 1.12 | 1.28 | 0.939 | 0.221 | 0.264 | 1 | 0.88 | 0.897 | 0.189 | 0.213 | 0.969 | 0.913 | 0.829 | 0.522 | 0.199
2 | NCI-H1651 | 0.632 | 0.919 | 0.661 | 0.388 | 0.759 | 0.898 | 0.98 | 0.894 | 0.583 | 0.11 | 0.628 | 0.776 | 0.536 | 0.0828 | 0.0854 | 0.976 | 1.01 | 0.878 | 0.119 | 0.0863
3 | NCI-H2023 | 0.326 | 0.366 | 0.403 | 0.308 | 0.44 | 0.943 | 0.87 | 0.193 | 0.0834 | 0.0889 | 0.864 | 0.914 | 0.671 | 0.0855 | 0.0903 | 0.67 | 0.667 | 0.606 | 0.0984 | 0.109
4 | LC-2-ad | 0.469 | 0.491 | 0.436 | 0.404 | 0.493 | 1.06 | 0.923 | 0.112 | 0.124 | 0.104 | 0.909 | 0.386 | 0.289 | 0.285 | 0.322 | 0.891 | 0.85 | 0.382 | 0.15 | 0.143
5 | NCI-H1437 | 0.393 | 0.469 | 0.391 | 0.361 | 0.422 | 0.543 | 0.463 | 0.416 | 0.136 | 0.089 | 1.25 | 1.18 | 0.852 | 0.198 | 0.179 | 1.03 | 0.901 | 0.941 | 0.123 | 0.0942
6 | SK-LU-1 | 0.341 | 0.351 | 0.361 | 0.305 | 0.38 | 0.978 | 1.12 | 0.465 | 0.201 | 0.174 | 0.839 | 0.778 | 0.291 | 0.213 | 0.197 | 1.04 | 1.19 | 1.02 | 0.3 | 0.303
7 | H3255 | 0.623 | 0.729 | 0.734 | 0.434 | 0.673 | 0.824 | 0.679 | 0.36 | 0.241 | 0.276 | 0.769 | 1.03 | 0.49 | 0.261 | 0.218 | 0.906 | 1.03 | 0.903 | 0.227 | 0.226
8 | NCI-H2087 | 0.284 | 0.203 | 0.272 | 0.254 | 0.249 | 0.858 | 0.677 | 0.693 | 0.128 | 0.139 | 1.03 | 1.17 | 0.476 | 0.133 | 0.124 | 0.83 | 1.06 | 0.927 | 0.197 | 0.163
